# Assay results from patent US11427848B2, “Methods for harvesting mammalian cell cultures” (Amgen Inc., priority 2014, dated 2022).
# System: CHO cell lines (Cell line A and Cell line B)
# Format: cell-based, Chinese Hamster
# Procedure: To test for the effect of toxicity of high polyoxypropylene-polyoxyethylene block copolymer (LUTROL® F68) concentration on cells, two CHO cell lines (Cell line A and Cell line B) expressing different monoclonal antibodies were carried over 10 passages (at 3 days/passage), at an initial seeding density of 8×10^5 cells/ml in 250 ml shake flasks with cell culture media containing 1, 2, 3, 4 or 5 g/L polyoxypropylene-polyoxyethylene block copolymer (LUTROL® F68).
# An overall increase in cell density was observed (3.4-6.5×10^6 cells/ml) after 3 days. Viable cell density was normalized to the 1 g/L condition to enable comparison between the different polyoxypropylene-polyoxyethylene block copolymer (LUTROL® F68) concentrations.
# The cells grown in media containing 3, 4 or 5 g/L polyoxypropylene-polyoxyethylene block copolymer (LUTROL® F68) were consistently higher over the passages, in which a 10% increase in cell density was measured compared to the 1 g/L condition (p<0.01) (FIG. 7A). The viability was also greater for the higher polyoxypropylene-polyoxyethylene block copolymer (LUTROL® F68) cultures (mean >95%) (FIG. 7B). […] The variation of viable cell density, % viability.
substance,measurement,value
poloxamer 188 [LUTROL® F68],cell diameter compared to the 1 g/L condition,increased slightly
same,increase in cell density compared to the 1 g/L condition,10%
same,viability (mean),> 95%
